# Source: patent publication US10654816B2, “Compounds and compositions for treating conditions associated with NLRP activity” (NOVARTIS INFLAMMASOME RESEARCH, INC., priority 2017, dated 2020)
# Test system: IL-1β production in PMA-differentiated THP-1 cells
# Experiment: IL-1β production in PMA-differentiated THP-1 cells stimulated with gramicidin (hTHP-1 assay, HTRF readout; Procedures 1-3)
# Type: cell-based, human
# Settings: Homo sapiens, THP-1, hTHP-1 assay containing 2% fetal bovine serum; average; class symbols; read-out: hTHP-1 IC50 (Average IC50 of compounds in hTHP-1 assay)
# Protocol: The Following Protocol is Suitable for Testing the Activity of the Compounds Disclosed Herein. Procedure 1: IL-1B Production in PMA-Differentiated THP-1 Cells Stimulated with Gramicidin.
# THP-1 cells were purchased from the American Type Culture Collection and sub-cultured according to instructions from the supplier. Cells were cultured in complete RPMI 1640 (containing 10% heat inactivated FBS, penicillin (100 units/ml) and streptomycin (100 μg/ml)), and maintained in log phase prior to experimental setup. Prior to the experiment, compounds were dissolved in dimethyl sulfoxide (DMSO) to generate a 30 mM stock. The compound stock was first pre-diluted in DMSO to 3, 0.34, 0.042 and 0.0083 mM intermediate concentrations and subsequently spotted using Echo550 liquid handler into an empty 384-well assay plate to achieve desired final concentration (e.g. 100, 33, 11, 3.7, 1.2, 0.41, 0.14, 0.046, 0.015, 0.0051, 0.0017 μM). DMSO was backfilled in the plate to achieve a final DMSO assay concentration of 0.37%. The plate was then sealed and stored at room temperature until required.
# THP-1 cells were treated with PMA (Phorbol 12-myristate 13-acetate) (20 ng/ml) for 16-18 hours. On the day of the experiment the media was removed and adherent cells were detached with trypsin for 5 minutes. Cells were then harvested, washed with complete RPMI 1640, spun down, and resuspended in RPMI 1640 (containing 2% heat inactivated FBS, penicillin (100 units/ml) and streptomycin (100 μg/ml). The cells were plated in the 384-well assay plate containing the spotted compounds at a density of 50,000 cells/well (final assay volume 50 μl). Cells were incubated with compounds for 1 hour and then stimulated with gramicidin (5 μM) (Enzo) for 2 hours. Plates were then centrifuged at 340 g for 5 min. Cell free supernatant (40 μL) was collected using a 96-channel PlateMaster (Gilson) and the production of IL-1β was evaluated by HTRF (cisbio). The plates were incubated for 18 h at 4° C. and read using the preset HTRF program (donor emission at 620 nm, acceptor emission at 668 nm) of the SpectraMax i3x spectrophotometer (Molecular Devices, software SoftMax 6). A vehicle only control and a dose titration of CRID3 (100-0.0017 μM) were run concurrently with each experiment.
# Procedure 2: IL-1β Production in PMA-Differentiated THP-1 Cells Stimulated with Gramicidin.
# THP-1 cells were purchased from the American Type Culture Collection and sub-cultured according to instructions from the supplier. Prior to experiments, cells were cultured in complete RPMI 1640 (containing 10% heat inactivated FBS, penicillin (100 units/ml) and streptomycin (100 μg/ml)), and maintained in log phase prior to experimental setup. Prior to the experiment THP-1 were treated with PMA (Phorbol 12-myristate 13-acetate) (20 ng/ml) for 16-18 hours. Compounds were dissolved in dimethyl sulfoxide (DMSO) to generate a 30 mM stock.
# On the day of the experiment the media was removed and adherent cells were detached with trypsin for 5 minutes. Cells were then harvested, washed with complete RPMI 1640, spun down, resuspended in RPMI 1640 (containing 2% heat inactivated FBS, penicillin (100 units/ml) and streptomycin (100 μg/ml). The cells were plated in a 384-well plate at a density of 50,000 cells/well (final assay volume 50 μl). Compounds were first dissolved in assay medium to obtain a 5× top concentration of 500 μM. 10 step dilutions (1:3) were then undertaken in assay medium containing 1.67% DMSO. 5× compound solutions were added to the culture medium to achieve desired final concentration (e.g. 100, 33, 11, 3.7, 1.2, 0.41, 0.14, 0.046, 0.015, 0.0051, 0.0017 μM). Final DMSO concentration was at 0.37%. Cells were incubated with compounds for 1 hour and then stimulated with gramicidin (5 μM) (Enzo) for 2 hours. Plates were then centrifuged at 340 g for 5 min. Cell free supernatant (40 μL) was collected using a 96-channel PlateMaster (Gilson) and the production of IL-1β was evaluated by HTRF (cisbio). […]
row,SMILES,IC50 [nM]
1,"CN(C)Cc1ccc(S(N)(=O)=NC(=O)Nc2c3c(cc4c2CCC4)CCC3)cc1F (centres unmarked) [Example 280, 4-((dimethylamino)methyl)-3-fluoro-N′-((1,2,3,5,6,7-hexahydro-s-indacen-4-yl)carbamoyl)benzenesulfonimidamide]",200 to 1000
2,CC(C)c1cc(OC(F)F)cc(C2CC2)c1NC(=O)N=S(N)(=O)c1ccc(C(C)(C)O)cc1F (centres unmarked) [Example 54],1000 to 5000
3,"CC(C)(O)c1ncc(S(N)(=O)=NC(=O)Nc2c3c(c(C#N)c4c2CCC4)CCC3)s1 (centres unmarked) [Example 43, N′-(8-cyano-1,2,3,5,6,7-hexaliydro-s-indacen-4-ylcarbamoyl)-2-(2-hydroxypropan-2-yl)thiazole-5-sulfonimidamide]",40 to 200
4,"CC(=O)N(C)Cc1ccc(S(N)(=O)=NC(=O)Nc2c3c(cc4c2CCC4)CCC3)cc1 (centres unmarked) [Example 268, N-(4-(N′-(1,2,3,5,6,7-hexahydro-s-indacen-4-ylcarbamoyl)sulfamimidoyl)benzyl)-N-methylacetamide]",1000 to 5000
5,"CC(C)c1cc(C#N)cc(C(C)C)c1NC(=O)NS(=N)(=O)c1sc(C(C)(C)O)nc1CO (centres unmarked) [Example 70, N-((4-cyano-2,6-diisopropylphenyl)carbaoyl)-4-(hydroxymethyl)-2-(2-hydroxypropan-2-yl)thiazole-5-sulfonimidamide]",1000 to 5000
6,"Cc1ccc(-c2ccc(NC(=O)N=S(N)(=O)c3ncc(C(C)(C)O)s3)c3c2CCC3)cc1C (centres unmarked) [Example 426, 1-{Amino[5-(2-hydroxypropan-2-yl)-1,3-thiazol-2-yl]oxo-λ^6-sulfanylidene}-3-[7-(3,4-dimethylphenyl)-2,3-dihydro-1H-inden-4-yl]urea]",5000 to 30000
7,"Cc1sc(S(N)(=O)=NC(=O)Nc2c3c(cc4c2CCC4)CCC3)nc1C(C)(C)O (centres unmarked) [Example 265, N′-(1,2,3,5,6,7-hexahydro-s-indacen-4-ylcarbamoyl)-4-(2-hydroxypropan-2-yl)-5-methylthiazole-2-sulfonimidamide]",40 to 200
8,"C#CCN(C)Cc1ccc(S(N)(=O)=NC(=O)Nc2c3c(cc4c2CCC4)CCC3)cc1 (centres unmarked) [Example 239, N′-(1,2,3,5,6,7-hexahydro-s-indacen-4-ylcarbamoyl)-4-((methyl(prop-2-ynyl)amino)methyl)benzene-sulfonimidamide]",1000 to 5000
9,"Cc1ccc(S(N)(=O)=NC(=O)Nc2c(C(C)C)cc(F)cc2C(C)C)nc1 (centres unmarked) [Example 220, N′-((4-fluoro-2,6-diisopropylphenyl)carbamoyl)-5-methylpyridine-2-sulfonimidamide]",5000 to 30000
10,"Cc1cc(C(C)(C)O)ccc1S(N)(=O)=NC(=O)Nc1c(C(C)C)cc(OC(F)F)cc1C1CC1 (centres unmarked) [Example 29, N′-(2-cyclopropyl-4-(difluoromethoxy)-6-isopropylphenylcarbamoyl)-4-(2-hydroxypropan-2-yl)-2-methylbenzenesulfonimidamide]",5000 to 30000
11,"CC(C)(O)c1cccc(S(N)(=O)=NC(=O)Nc2c3c(c(F)c4c2CCC4)CCC3)c1 (centres unmarked) [Example 34, N′-(8-fluoro-1,2,3,5,6,7-hexahydro-s-indacen-4-ylcarbamoyl)-3-(2-hydroxypropan-2-yl)benzenesulfonimidamide]",1000 to 5000
12,"CC(C)(O)c1csc(S(N)(=O)=NC(=O)Nc2c3c(cc4c2CC4)CCC3)n1 (centres unmarked) [Example 262, 4-(2-Hydroxypropan-2-yl)-N′-((2,4,5,6-tetrahydro-1H-cyclobuta[f]inden-3-yl)carbamoyl)thiazole-2-sulfonimidamide]",8 to 40
13,"CN(C)Cc1ccc(S(N)(=O)=NC(=O)Nc2c3c(cc4c2CCC4)CCC3)cn1 (centres unmarked) [Example 276, 6-((Dimethylamino)methyl)-N′-(1,2,3,5,6,7-hexahydro-s-indacen-4-ylcarbamoyl)pyridine-3-sulfonimidamide]",200 to 1000
14,"Cc1oc(S(N)(=O)=NC(=O)Nc2c(C(C)C)cc(C#N)c(F)c2C(C)C)cc1C(C)(C)O (centres unmarked) [Example 33, N′-(4-cyano-3-fluoro-2,6-diisopropylphenylcarbamoyl)-4-(2-hydroxypropan-2-yl)-5-methylfuran-2-sulfonimidamide]",40 to 200
15,"Cc1cc(C(C)(C)O)ccc1S(N)(=O)=NC(=O)Nc1c(C(C)C)cc(OC(F)F)cc1C1CC1 (single isomer, unassigned) [Example 119, (S)- or (R)-N′-(2-cyclopropyl-4-(difluoromethoxy)-6-isopropylphenylcarbamoyl)-4-(2-hydroxypropan-2-yl)-2-methylbenzenesulfonimidamide]",5000 to 30000
16,"CC(C)c1cc(C#N)cc(C(C)C)c1NC(=O)N=S(N)(=O)c1ccc(C(C)(C)O)c(CO)c1 (centres unmarked) [Example 68, N′-((4-cyano-2,6-diisopropylphenyl)carbaoyl)-3-(hydroxymethyl)-4-(2-hydroxypropan-2-yl)benzenesulfonimidamide]",1000 to 5000
17,"NS(=O)(=NC(=O)Nc1c2c(cc3c1CCC3)CCC2)c1ccc(CN2CCC(F)(F)C2)cc1 (centres unmarked) [Example 235, 4-((3,3-Difluoropyrrolidin-1-yl)methyl)-N′-(1,2,3,5,6,7-hexahydro-s-indacen-4-ylcarbamoyl)benzenesulfonimidamide]",1000 to 5000
18,"CC(C)c1cc(OC(F)F)cc(C2CC2)c1NC(=O)N=S(N)(=O)c1ccc(CN(C)C)cc1 (centres unmarked) [Example 37, N′-(2-cyclopropyl-4-(difluoromethoxy)-6-isopropylphenylcarbamoyl)-4-((dimethylamino)methyl)benzene sulfonimidamide]",1000 to 5000
19,"CC(C)c1cc(C#N)cc(C(C)C)c1NC(=O)N=S(N)(=O)c1ccc(C(C)(C)O)c(CO)c1 (single isomer, unassigned) [Example 188, (S)- or (R)-N′-((4-cyano-2,6-diisopropylphenyl)carbamoyl)-3-(hydroxymethyl)-4-(2-hydroxypropan-2-yl)benzenesulfonimidamide]",1000 to 5000

# Same assay, conditions: Homo sapiens, THP-1, hTHP-1 assay containing 2% fetal bovine serum; average; given as bound; read-out: hTHP-1 IC50 (Average IC50 of compounds in hTHP-1 assay)
row,SMILES,IC50 [nM]
1,"CCc1ccc2cnn(C)c2c1NC(=O)N=S(N)(=O)c1ncc(C(C)(C)O)s1 (single isomer, unassigned) [Example 327, (S) or (R)-N′-((6-ethyl-1-methyl-1H-indazol-7-yl)carbamoyl)-5-(2-hydroxypropan-2-yl)thiazole-2-sulfonimidamide]",> 30000
2,"CC(C)Cc1ccc(S(N)(=O)=NC(=O)Nc2c3c(cc4c2CCC4)CCC3)cn1 (single isomer, unassigned) [Example 415, (R) or (S)-N′-((1,2,3,5,6,7-hexahydro-s-indacen-4-yl)carbamoyl)-6-isobutylpyridine-3-sulfonimidamide]",> 30000

# Same assay, conditions: Homo sapiens, THP-1, hTHP-1 assay containing 2% fetal bovine serum; average; numeric bound printed without unit; read-out: hTHP-1 IC50 (Average IC50 of compounds in hTHP-1 assay)
row,SMILES,IC50 [nM]
1,"CCc1ccc2cn[nH]c2c1NC(=O)N=S(N)(=O)c1cnc(C(C)(C)O)s1 (single isomer, unassigned) [Example 325, (S) or (R)-N′-((6-ethyl-1H-indazol-7-yl)carbamoyl)-2-(2-hydroxypropan-2-yl)thiazole-5-sulfonimidamide]",> 28400

# Same assay, conditions: hTHP-1 assay containing 2% fetal bovine serum; average; given as bound; read-out: hTHP-1 IC50 (Average IC50 of compounds in hTHP-1 assay)
row,SMILES,IC50 [nM]
1,"CCc1ccc2cn(C)nc2c1NC(=O)N=S(N)(=O)c1ncc(C(C)(C)O)s1 (single isomer, unassigned) [Example 330, (R) or (S)-N′-((6-ethyl-2-methyl-2H-indazol-7-yl)carbamoyl)-5-(2-hydroxypropan-2-yl)thiazole-2-sulfonimidamide]",> 30000
